Tests used:
GCIY (Gastric Carcinoma) [1] = assay: Bliss excess, mean over the matrix (fraction); higher = more synergy
In short: (§1)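 Cell lines grown in DMEM/F12 or RPMI with 10% FBS were plated in 1536-well plates and held 24 hours at 37°C, 5% CO2 before 72 hours of exposure to two-drug dose matrices, with DMSO typically at 0.2%. CellTiter-Glo 2.0 luminescence gave viability, which was converted to inhibition. Vehicle wells were set to 0 and blank wells to 1. Combination Emax is the second-highest inhibition in the matrix, and Bliss excess is the observed combination effect minus the expected EA + EB − EA·EB, where EA and EB are the single-agent effects.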

MG-63 (Osteosarcoma) [2] = assay: as above
In short: as §1

[3] = system: NCI-H1435 (Non-Small Cell Lung Carcinoma); assay: as above
In short: as §1

[4] = system: MRK-nu-1 (Breast Carcinoma); assay: as above
In short: as §1

[5] = system: CAL-85-1 (Breast Carcinoma); assay: as above
In short: as §1

[6] = system: OVKATE (Ovarian Carcinoma); assay: as above
In short: as §1

[7] = system: NCI-H2023 (Non-Small Cell Lung Carcinoma); assay: as above
In short: as §1

A375 (Melanoma) [8] = assay: as above
In short: as §1

SK-MEL-24 (Melanoma) [9] = assay: as above
In short: as §1

C32 (Melanoma) [10] = assay: as above
In short: as §1

[11] = system: NCI-H2009 (Lung Adenocarcinoma); assay: as above
In short: as §1

[12] = system: BC-1 (B-Cell Non-Hodgkin's Lymphoma); assay: as above
In short: as §1

[13] = system: KNS-62 (Squamous Cell Lung Carcinoma); assay: as above
In short: as §1

[14] = system: RPMI-8402 (T-Lymphoblastic Leukemia); assay: as above
In short: as §1

[15] = system: L-363 (Plasma Cell Myeloma); assay: as above
In short: as §1

[16] = system: NCI-H835 (Other Solid Carcinomas); assay: as above
In short: as §1

[17] = system: SW1463 (Colorectal Carcinoma); assay: as above
In short: as §1

[18] = system: NTERA-2-cl-D1 (Other Solid Carcinomas); assay: as above
In short: as §1

[19] = system: COR-L105 (Lung Adenocarcinoma); assay: as above
In short: as §1

[20] = system: NCI-H1648 (Lung Adenocarcinoma); assay: as above
In short: as §1

[21] = system: SBC-3 (Small Cell Lung Carcinoma); assay: as above
In short: as §1

[22] = system: MDA-MB-175-VII (Breast Carcinoma); assay: as above
In short: as §1

NCI-H2452 (Mesothelioma) [23] = assay: as above
In short: as §1

GCIY (Gastric Carcinoma) [24] = assay: combination Emax (second highest fraction inhibited in the dose matrix, 72 h); higher = more inhibition; extreme values may be limits of the assay
In short: as §1

MG-63 (Osteosarcoma) [25] = assay: as above
In short: as §1

[26] = system: NCI-H1435 (Non-Small Cell Lung Carcinoma); assay: as above
In short: as §1

[27] = system: MRK-nu-1 (Breast Carcinoma); assay: as above
In short: as §1

[28] = system: CAL-85-1 (Breast Carcinoma); assay: as above
In short: as §1

[29] = system: OVKATE (Ovarian Carcinoma); assay: as above
In short: as §1

[30] = system: NCI-H2023 (Non-Small Cell Lung Carcinoma); assay: as above
In short: as §1

A375 (Melanoma) [31] = assay: as above
In short: as §1

SK-MEL-24 (Melanoma) [32] = assay: as above
In short: as §1

C32 (Melanoma) [33] = assay: as above
In short: as §1

[34] = system: NCI-H2009 (Lung Adenocarcinoma); assay: as above
In short: as §1

[35] = system: BC-1 (B-Cell Non-Hodgkin's Lymphoma); assay: as above
In short: as §1

[36] = system: KNS-62 (Squamous Cell Lung Carcinoma); assay: as above
In short: as §1

[37] = system: RPMI-8402 (T-Lymphoblastic Leukemia); assay: as above
In short: as §1

[38] = system: L-363 (Plasma Cell Myeloma); assay: as above
In short: as §1

[39] = system: NCI-H835 (Other Solid Carcinomas); assay: as above
In short: as §1

[40] = system: SW1463 (Colorectal Carcinoma); assay: as above
In short: as §1

[41] = system: NTERA-2-cl-D1 (Other Solid Carcinomas); assay: as above
In short: as §1

[42] = system: COR-L105 (Lung Adenocarcinoma); assay: as above
In short: as §1

[43] = system: NCI-H1648 (Lung Adenocarcinoma); assay: as above
In short: as §1

[44] = system: SBC-3 (Small Cell Lung Carcinoma); assay: as above
In short: as §1

[45] = system: MDA-MB-175-VII (Breast Carcinoma); assay: as above
In short: as §1

NCI-H2452 (Mesothelioma) [46] = assay: as above
In short: as §1
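Wherever Bliss excess, mean over the matrix is given: after 72 h of two-drug dosing.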

## O=C(c1cc(Cc2n[nH]c(=O)c3ccccc23)ccc1F)N1CCN(C(=O)C2CC2)CC1 [Olaparib] + COc1nnc2ccc(N3CCC(c4ccc(OCCN5CCN(C)C(=O)[C@H]5C)cc4)CC3)nn12 [AZD5153] (first compound max 10 µM, 7x7, partner max 1 µM)
GCIY (Gastric Carcinoma) [1]
  Bliss excess: -0.0248
MG-63 (Osteosarcoma) [2]
  Bliss excess: -0.0749
[3]
  Bliss excess: -0.022
[4]
  Bliss excess: 0.0665
[5]
  Bliss excess: -0.026
[6]
  Bliss excess: -0.0686
[7]
  Bliss excess: -0.0624
A375 (Melanoma) [8]
  Bliss excess: -0.0229
SK-MEL-24 (Melanoma) [9]
  Bliss excess: -0.0814
C32 (Melanoma) [10]
  Bliss excess: -0.0595
[11]
  Bliss excess: -0.044
[12]
  Bliss excess: -0.0048
[13]
  Bliss excess: -0.0631
[14]
  Bliss excess: -0.0277
[15]
  Bliss excess: 0.0357
[16]
  Bliss excess: -0.0422
[17]
  Bliss excess: -0.0601
[18]
  Bliss excess: -0.127
[19]
  Bliss excess: -0.0689
[20]
  Bliss excess: -0.0388
[21]
  Bliss excess: -0.0786
[22]
  Bliss excess: -0.0024
NCI-H2452 (Mesothelioma) [23]
  Bliss excess: -0.0361
GCIY (Gastric Carcinoma) [24]
  combination Emax: 0.487
MG-63 (Osteosarcoma) [25]
  combination Emax: 0.717
[26]
  combination Emax: 0.223
[27]
  combination Emax: 0.467
[28]
  combination Emax: 0.613
[29]
  combination Emax: 0.264
[30]
  combination Emax: 0.344
A375 (Melanoma) [31]
  combination Emax: 0.425
SK-MEL-24 (Melanoma) [32]
  combination Emax: 0.419
C32 (Melanoma) [33]
  combination Emax: 0.22
[34]
  combination Emax: 0.374
[35]
  combination Emax: 0.873
[36]
  combination Emax: 0.436
[37]
  combination Emax: 0.9
[38]
  combination Emax: 0.468
[39]
  combination Emax: 0.403
[40]
  combination Emax: 0.561
[41]
  combination Emax: 0.649
[42]
  combination Emax: 0.404
[43]
  combination Emax: 0.684
[44]
  combination Emax: 0.703
[45]
  combination Emax: 0.316
NCI-H2452 (Mesothelioma) [46]
  combination Emax: 0.407

## C=CCn1c(=O)c2cnc(Nc3ccc(N4CCN(C)CC4)cc3)nc2n1-c1cccc(C(C)(C)O)n1 [AZD1775] + Nc1ccn([C@@H]2O[C@H](CO)[C@@H](O)C2(F)F)c(=O)n1 [Gemcitabine] (first compound max 1 µM, partner max 0.3 µM)
GCIY (Gastric Carcinoma) [1]
  Bliss excess: 0.0465
MG-63 (Osteosarcoma) [2]
  Bliss excess: 0.0581
[3]
  Bliss excess: -0.0012
[4]
  Bliss excess: 0.045
[5]
  Bliss excess: 0.0733
[6]
  Bliss excess: -0.0681
[7]
  Bliss excess: 0.0248
A375 (Melanoma) [8]
  Bliss excess: 0.0519
SK-MEL-24 (Melanoma) [9]
  Bliss excess: 0.0069
C32 (Melanoma) [10]
  Bliss excess: -0.0569
[11]
  Bliss excess: 0.0606
[12]
  Bliss excess: 0.0191
[13]
  Bliss excess: 0.0179
[14]
  Bliss excess: 0.0141
[15]
  Bliss excess: 0.125
[16]
  Bliss excess: -0.0789
[17]
  Bliss excess: -0.0109
[18]
  Bliss excess: -0.062
[19]
  Bliss excess: -0.0263
[20]
  Bliss excess: -0.0038
[21]
  Bliss excess: -0.0105
[22]
  Bliss excess: -0.0105
NCI-H2452 (Mesothelioma) [23]
  Bliss excess: -0.0727
GCIY (Gastric Carcinoma) [24]
  combination Emax: 0.764
MG-63 (Osteosarcoma) [25]
  combination Emax: 0.955
[26]
  combination Emax: 0.345
[27]
  combination Emax: 0.688
[28]
  combination Emax: 0.697
[29]
  combination Emax: 0.261
[30]
  combination Emax: 0.656
A375 (Melanoma) [31]
  combination Emax: 0.966
SK-MEL-24 (Melanoma) [32]
  combination Emax: 0.793
C32 (Melanoma) [33]
  combination Emax: 0.701
[34]
  combination Emax: 0.907
[35]
  combination Emax: 0.995
[36]
  combination Emax: 0.561
[37]
  combination Emax: 1
[38]
  combination Emax: 0.983
[39]
  combination Emax: 0.476
[40]
  combination Emax: 0.763
[41]
  combination Emax: 0.614
[42]
  combination Emax: 0.428
[43]
  combination Emax: 0.643
[44]
  combination Emax: 0.949
[45]
  combination Emax: 0.456
NCI-H2452 (Mesothelioma) [46]
  combination Emax: 0.693

## N#Cc1cnc(Nc2cc(NC[C@H]3CNCCO3)c(C(F)(F)F)cn2)cn1 [SRA737] + CCc1c2c(nc3ccc(O)cc13)-c1cc3c(c(=O)n1C2)COC(=O)[C@]3(O)CC [SN-38] (first compound max 10 µM, 7x7, partner max 0.3 µM)
GCIY (Gastric Carcinoma) [1]
  Bliss excess: -0.0331
MG-63 (Osteosarcoma) [2]
  Bliss excess: -0.0251
[3]
  Bliss excess: -0.0243
[4]
  Bliss excess: -0.128
[5]
  Bliss excess: -0.0479
[6]
  Bliss excess: -0.045
[7]
  Bliss excess: -0.0813
A375 (Melanoma) [8]
  Bliss excess: -0.0288
SK-MEL-24 (Melanoma) [9]
  Bliss excess: -0.0221
C32 (Melanoma) [10]
  Bliss excess: -0.0762
[11]
  Bliss excess: 0.0451
[12]
  Bliss excess: -0.0242
[13]
  Bliss excess: -0.0387
[14]
  Bliss excess: -0.0209
[15]
  Bliss excess: 0.0599
[16]
  Bliss excess: -0.0262
[17]
  Bliss excess: 0.0621
[18]
  Bliss excess: -0.0004
[19]
  Bliss excess: -0.035
[21]
  Bliss excess: -0.0632
[22]
  Bliss excess: -0.0418
NCI-H2452 (Mesothelioma) [23]
  Bliss excess: 0.0683
GCIY (Gastric Carcinoma) [24]
  combination Emax: 0.85
MG-63 (Osteosarcoma) [25]
  combination Emax: 0.953
[26]
  combination Emax: 0.46
[27]
  combination Emax: 0.763
[28]
  combination Emax: 0.746
[29]
  combination Emax: 0.138
[30]
  combination Emax: 0.747
A375 (Melanoma) [31]
  combination Emax: 0.923
SK-MEL-24 (Melanoma) [32]
  combination Emax: 0.73
C32 (Melanoma) [33]
  combination Emax: 0.626
[34]
  combination Emax: 0.768
[35]
  combination Emax: 0.952
[36]
  combination Emax: 0.866
[37]
  combination Emax: 1
[38]
  combination Emax: 0.878
[39]
  combination Emax: 0.402
[40]
  combination Emax: 0.758
[41]
  combination Emax: 0.624
[42]
  combination Emax: 0.38
[43]
  combination Emax: 0.849
[44]
  combination Emax: 0.935
[45]
  combination Emax: 0.63
NCI-H2452 (Mesothelioma) [46]
  combination Emax: 0.787

Reference: the supplement of paper PMC11061612
